The values that follow come from patent US20190284635A1, “METHOD FOR THE PROGNOSIS AND/OR TREATMENT OF ACUTE PROMYELOCYTIC LEUKEMIA” (EPI-C S.R.L., priority 2016, published 2019).

One experiment has as its system SHSY5Y cells. The experiment in a line: Cell death induction in SHSY5Y cells. It is filed as cell-based. Particulars: 48 h; for cytotoxicity at 3 µM: Homo sapiens, SH-SY5Y; for cell death induction in SHSY5Y cells, in words, relative to MC2884: 3 μM. The protocol:
(§1) For cell cycle analyses, the cells were plated (2×10^5 cells/mL) and after stimulation (performed as indicated in the text) were harvested, centrifuged at 1200 rpm for 5 minutes and resuspended in 500 μL of a hypotonic solution containing 1×PBS, Sodium Citrate 0.1%, 0.1% NP-40, RNAase A and […] Propidium Iodide (PI) (a dye that intercalates between the DNA bases, marking the DNA content in the cells and emitting a fluorescent signal that enables the analysis). After 30′ at room temperature (RT) in the dark, samples were acquired by FACS-Calibur (BD Bioscences, San Jose, Calif., USA) using CellQuest software (BD Biosciences). The percentage in different phases of the cell cycle was determined by ModFit LT V3 software (Verity). All experiments were performed in triplicate.
When tested in neuroblastoma SHSY5Y cells at 3 μM for 48 h, MC2884 and its analogues furnished similar trend of death induction as in NB4 cells (Table 7). In general, the SHSY5Y cell line is less sensitive to the tested molecules than NB4 cells.

A further experiment relates to NB4 cells. Nature of the experiment: Cell death induction in NB4 cells. The settings on record: for cytotoxicity at 3 µM: Homo sapiens, NB-4, 30 h; for % Cell death NB4 cells: 3 μM, 30 h. It is filed as cell-based, human. The protocol:
as §1
When tested in leukemia NB4 cells at 3 μM for 30 h, MC2884 induced 52.1% cell death. Some MC2884 analogues have been tested to obtain SAR data (Table 8).

The test system of experiment [1] is acetyl-H3K9-14, H3K27me3/2, EZH2 in NB4 cells. The experiment in a line: Western blot of histone marks and EZH2 in NB4 cells. It is filed as cell-based, human. The protocol:
The procedures were performed as described in (31,34). Primary antibodies used were: H3K27me3 (Abcam); H3K9-14ac (Millipore); H3K27ac, EZH2, PARP, TRAIL, RIP (Abcam); BID, BAX, BCL2 (Cell Signaling); BCL-XL (BD Biosciences); ERKs (Santa Cruz) and α-tubulin (Sigma) were used to normalize the total protein extracts, while H1 (Abcam) to normalize histone extracts.

Take `O=C(/C=C/c1ccc(Br)cc1)/C=C/c1ccc(Br)cc1` [MC2886, (1E,4E)-1,5-bis(4-bromophenyl)penta-1,4-dien-3-one]: the cytotoxicity at 3 µM amounted to 1.2% with SHSY5Y cells and 0.56% with NB4 cells.

For the compound `O=C1/C(=C/c2ccccc2Br)CN(Cc2ccccc2)C/C1=C\c1ccccc1Br` [MC2908, 1-benzyl-3,5-bis(2-bromobenzylidene)piperidin-4-one], the cytotoxicity at 3 µM turned out to be 9.2% in the experiment with SHSY5Y cells and 30.3% in the experiment on NB4 cells.

With `O=C1/C(=C/c2ccc(Br)cc2)CN(Cc2ccccc2)C/C1=C\c1ccc(Br)cc1` [MC2909, 1-benzyl-3,5-bis(4-bromobenzylidene)piperidin-4-one], the “modulation of histone acetylation and EZH2 deregulation” value in experiment [1] is listed as “unable to modulate”. Further, in the experiment with SHSY5Y cells, the “cell death induction in SHSY5Y cells, in words, relative to MC2884” value (shortened to “cell death induction … relative to MC2884”) is given as “less potent or not active”. Besides, the cytotoxicity at 3 µM was determined as 4.7% in the experiment on SHSY5Y cells and 8.8% with NB4 cells.

As to `O=C1/C(=C/c2cc(Br)cc(Br)c2)CN(Cc2ccccc2)C/C1=C\c1cc(Br)cc(Br)c1` [MC2910, 1-benzyl-3,5-bis(3,5-dibromobenzylidene)piperidin-4-one], the cytotoxicity at 3 µM came out at 2.4% with SHSY5Y cells and 4.2% in the experiment with NB4 cells.

In the case of `O=C1/C(=C/c2cccc(Br)c2)CCC/C1=C\c1cccc(Br)c1` [MC2911, 2,6-bis((E)-3-bromobenzylidene)cyclohexan-1-one], the values for the cytotoxicity at 3 µM in the experiment with SHSY5Y cells and in the experiment with NB4 cells were 0.8% and 0.76%, respectively.

With `O=C1/C(=C/c2cccc(Br)c2)COC/C1=C\c1cccc(Br)c1` [MC2912, 3,5-bis(3-bromobenzylidene)dihydro-2H-pyran-4(3H)-one], the values for the cytotoxicity at 3 µM in the experiment with SHSY5Y cells and in the experiment with NB4 cells were 1% and 4.1%, respectively.

In the case of `O=C1/C(=C/c2cccc(Br)c2)CSC/C1=C\c1cccc(Br)c1` [MC2913, 3,5-bis(3-bromobenzylidene)dihydro-2H-thiopyran-4(3H)-one], the values for the cytotoxicity at 3 µM in the experiment on SHSY5Y cells and with NB4 cells were 23.9% and 52.7%, respectively.

In the case of `CN1C/C(=C\c2cccc(Br)c2)C(=O)/C(=C/c2cccc(Br)c2)C1` [MC2914, 3,5-bis(3-bromobenzylidene)-1-methylpiperidin-4-one], in the experiment with SHSY5Y cells, the “cell death induction … relative to MC2884” value is “reduced the potency” and the cytotoxicity at 3 µM turned out to be 9%. For the same compound, in the experiment with NB4 cells, the “% Cell death NB4 cells” value is 36.0% and the cytotoxicity at 3 µM came out at 36%.

As for `O=C1/C(=C/c2cccc(Br)c2)CN(C(=O)c2ccccc2)C/C1=C\c1cccc(Br)c1` [MC3146, 1-benzoyl-3,5-bis(3-bromobenzylidene)piperidin-4-one], the results for the cytotoxicity at 3 µM in the experiment with SHSY5Y cells and in the experiment on NB4 cells were 5.6% and 13.2%, respectively.

For `O=C1/C(=C/c2cccc(Br)c2)CN(C(=O)CCc2ccccc2)C/C1=C\c1cccc(Br)c1` [MC3187, 3,5-bis(3-bromobenzylidene)-1-(3-phenylpropanoyl) piperidin-4-one], in the experiment on SHSY5Y cells, the “cell death induction … relative to MC2884” value is recorded as “slightly more potent than MC2884” and the cytotoxicity at 3 µM is 19.9%. In the experiment with NB4 cells, the cytotoxicity at 3 µM was 28.9%.

In turn, `O=C1/C(=C/c2cccc(Br)c2)CN(CC(=O)c2ccccc2)C/C1=C\c1cccc(Br)c1` [MC3207, 3,5-bis(3-bromobenzylidene)-1-(2-oxo-2-phenylethyl)piperidin-4-one] had a cytotoxicity at 3 µM with SHSY5Y cells of 7%. In the experiment on NB4 cells, the “% Cell death NB4 cells” value was 38.0% and the cytotoxicity at 3 µM was found to be 38%.

For the compound `O=C1/C(=C/c2cccc(Br)c2)CN(CCc2ccccc2)C/C1=C\c1cccc(Br)c1` [MC3269, 3,5-bis(3-bromobenzylidene)-1-phenethylpiperidin-4-one], in the experiment with SHSY5Y cells, the “cell death induction … relative to MC2884” value is listed as “same potency as MC2884” and the cytotoxicity at 3 µM turned out to be 19.2%. The compound further returned a cytotoxicity at 3 µM in the experiment on NB4 cells of 62.5%.

On to `O=C1/C(=C/c2cccc(Br)c2)CN(CCCc2ccccc2)C/C1=C\c1cccc(Br)c1` [MC3272, 3,5-bis(3-bromobenzyliden)-1-(3-phenylpropyl) piperidin-4-one], for which the results for the cytotoxicity at 3 µM with SHSY5Y cells and with NB4 cells were 7% and 29.2%, respectively.

Take `O=C1/C(=C/c2ccc(O)cc2Br)CN(Cc2ccccc2)C/C1=C\c1ccc(O)cc1Br` [MC3395, 1-benzyl-3,5-bis((E)-2-bromo-4-hydroxybenzylidene)piperidin-4-one]: the cytotoxicity at 3 µM with SHSY5Y cells is 1%; with NB4 cells, 0.53%.
